Some test systems named below: 786-0 renal; HCT-116 colon; HL-60(TB) leukemia; MDA-MB-231 breast; MDA-MB-435; NCI-H23 lung; OVCAR-4 ovarian; SK-MEL-5 melanoma; U251 CNS; UACC-257 melanoma; UACC-62 melanoma.
Assay in all cases: NCI anticancer screen, dose series, 48 h

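Each compound was tested at five concentrations against cells in 96-well plates for 48 hours. The concentration for full growth arrest is given as TGI.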 Where a SMILES comes first, the peptide text is derived from it. [ ]: non-standard residue; d: D form. Ava = NCCCCC(=O)O; Mpa = O=C(O)CCS Where only a bound is given, the exact number is not on record here.

With `CC(NC(=O)CCS)C(=O)NC(C)C(=O)NC(Cc1c[nH]c2ccccc12)C(=O)NC(Cc1c[nH]cn1)C(=O)NC(CO)C(=O)NC(Cc1c[nH]c2ccccc12)C(=O)NCCCCC(=O)NC(C)C(=O)NC(CCC(N)=O)C(=O)NC(CCCCN)C(=O)NC(C)C(=O)NC(CCCNC(=N)N)C(=O)NC(CCCCN)C(N)=O` (stereo not drawn) ([Mpa]AAWHSW[Ava]AQKARK-NH2; configuration not given here), the TGI was over 100 µM in the assay with 786-0 renal; over 100 µM in the assay on HCT-116 colon; 65.4 µM in the assay on HL-60(TB) leukemia; over 100 µM in the assay on MDA-MB-231 breast; over 100 µM in the assay with MDA-MB-435; over 100 µM with NCI-H23 lung. Further, the TGI in the assay with OVCAR-4 ovarian was over 100 µM; in the assay with SK-MEL-5 melanoma it was over 100 µM; with U251 CNS, over 100 µM; in the assay on UACC-257 melanoma, 63.1 µM; in the assay with UACC-62 melanoma, 52 µM.

As for `CCOC(=O)NC(Nc1ccc(F)cc1F)(C(F)(F)F)C(F)(F)F`, the TGI with 786-0 renal, in the assay with HCT-116 colon, in the assay on HL-60(TB) leukemia, in the assay on MDA-MB-231 breast, with MDA-MB-435 and with NCI-H23 lung was over 100 µM in each case. Besides, the TGI in the assay on SK-MEL-5 melanoma, with U251 CNS, in the assay on UACC-257 melanoma and in the assay on UACC-62 melanoma was over 100 µM in each case.

For `CCOC(CBr)OC1C(=O)OCC1(C)C` (stereo not drawn), the TGI in the assay with 786-0 renal, in the assay on HCT-116 colon, with HL-60(TB) leukemia, with MDA-MB-231 breast, in the assay on MDA-MB-435 and in the assay with NCI-H23 lung was over 100 µM throughout. Moreover, the TGI in the assay with OVCAR-4 ovarian, with SK-MEL-5 melanoma, with U251 CNS, in the assay on UACC-257 melanoma and with UACC-62 melanoma was over 100 µM each time.

As to `Nc1cc(CO)cc(Nc2c3ccccc3nc3ccccc23)c1`, the TGI with 786-0 renal was 30.4 µM; in the assay with HCT-116 colon it was 28.5 µM; in the assay on HL-60(TB) leukemia, over 100 µM; with MDA-MB-231 breast, 24.8 µM; in the assay on MDA-MB-435 it was 32.6 µM; in the assay with NCI-H23 lung it was 30.1 µM. The TGI in the assay on OVCAR-4 ovarian stood at 29.7 µM; with SK-MEL-5 melanoma it was 30.8 µM; in the assay with U251 CNS, 28.3 µM; in the assay on UACC-257 melanoma, 28.5 µM; in the assay with UACC-62 melanoma, 34.5 µM.

Consider `Cc1nc2c(Cl)cc(Cl)cc2c2c1CCO2`, for which the TGI with 786-0 renal, in the assay on HCT-116 colon, in the assay on HL-60(TB) leukemia, in the assay with MDA-MB-231 breast, in the assay on MDA-MB-435 and in the assay with NCI-H23 lung was over 100 µM throughout. Besides, the TGI with OVCAR-4 ovarian, in the assay on SK-MEL-5 melanoma, with U251 CNS, in the assay on UACC-257 melanoma and in the assay with UACC-62 melanoma was over 100 µM in each case.

Regarding `O=C(Nc1ccccc1C(=O)NCc1ccccc1)/C(=C/c1ccccc1O)NC(=O)c1ccccc1`, the TGI with 786-0 renal, in the assay with HCT-116 colon, with HL-60(TB) leukemia, in the assay with MDA-MB-231 breast, with MDA-MB-435 and with NCI-H23 lung was over 100 µM each time. Also, the TGI in the assay on SK-MEL-5 melanoma, in the assay with U251 CNS, in the assay with UACC-257 melanoma and in the assay on UACC-62 melanoma was over 100 µM each time.

As to `COc1ccc(C2=C(OC(C)=O)c3cccn3-c3ccc(Cl)cc3S2)cc1`, the TGI was over 10 µM with 786-0 renal; 3.02 µM in the assay on HL-60(TB) leukemia; over 10 µM in the assay with MDA-MB-231 breast; 4.84 µM in the assay with MDA-MB-435; over 10 µM in the assay with NCI-H23 lung; over 10 µM in the assay on OVCAR-4 ovarian. Besides, the TGI in the assay with SK-MEL-5 melanoma, with UACC-257 melanoma and in the assay on UACC-62 melanoma was over 10 µM in each case.

Consider `CC1=C[P+](c2ccccc2)(c2ccccc2)c2ccccc2O1`, for which the TGI in the assay with 786-0 renal was over 100 µM; in the assay on HCT-116 colon it was 16.9 µM; in the assay with HL-60(TB) leukemia, 8.76 µM; in the assay with MDA-MB-231 breast it was 21.6 µM; in the assay on MDA-MB-435, 12 µM; in the assay on NCI-H23 lung, 24.1 µM. The TGI in the assay with OVCAR-4 ovarian is over 100 µM; in the assay on SK-MEL-5 melanoma, 13.5 µM; with U251 CNS, over 100 µM; in the assay with UACC-257 melanoma it was over 100 µM; with UACC-62 melanoma, 41.1 µM.

For the compound `Nc1cc(C2CCCc3c2[nH]c2ccccc32)ccc1O` (stereo not drawn), the TGI with 786-0 renal is over 100 µM; in the assay on HCT-116 colon, over 100 µM; in the assay on HL-60(TB) leukemia, 50.3 µM; in the assay on MDA-MB-231 breast it was over 100 µM; in the assay on MDA-MB-435, 33.2 µM; in the assay with NCI-H23 lung, over 100 µM. Moreover, the TGI in the assay with OVCAR-4 ovarian, in the assay with SK-MEL-5 melanoma, with U251 CNS, in the assay with UACC-257 melanoma and in the assay with UACC-62 melanoma was over 100 µM in each case.

With `CS(=O)(=O)OCCN(CCOS(C)(=O)=O)c1ccc(C=Nc2ccc(-c3csc(Cc4ccccc4)n3)cc2)c(Cl)c1`, the TGI is over 68.3 µM with 786-0 renal; 57.1 µM in the assay with HCT-116 colon; 35.7 µM in the assay with HL-60(TB) leukemia; 75.6 µM in the assay with MDA-MB-231 breast; over 78.2 µM in the assay with MDA-MB-435; 70.6 µM with NCI-H23 lung. Besides, the TGI in the assay on OVCAR-4 ovarian is over 100 µM; with SK-MEL-5 melanoma it was 40.2 µM; in the assay with U251 CNS it was over 83.3 µM; with UACC-257 melanoma, 17.8 µM; with UACC-62 melanoma, over 47.7 µM.

On to `COc1cc(C[C@@]2(C)[C@@H]3CCC[C@H](CO)[C@@]3(C)CC[C@@H]2C)c(Cl)c(OC)c1`, for which the TGI was found to be 29.1 µM in the assay on 786-0 renal; 24.7 µM in the assay with HCT-116 colon; 47.3 µM in the assay with HL-60(TB) leukemia; 32.3 µM with MDA-MB-231 breast; 27.1 µM in the assay with MDA-MB-435; 37.2 µM with NCI-H23 lung. Besides, the TGI was determined as 33.3 µM in the assay with OVCAR-4 ovarian; 31.8 µM in the assay with SK-MEL-5 melanoma; 29 µM in the assay with U251 CNS; 35.2 µM with UACC-257 melanoma; 28.9 µM with UACC-62 melanoma.

As for `CCCC(=O)OCC1OC(n2cc(F)c(=O)[nH]c2=O)CC1OC(=O)CCC` (stereo not drawn), the TGI is over 10 µM with 786-0 renal; over 10 µM with HCT-116 colon; over 10 µM in the assay with HL-60(TB) leukemia; over 10 µM with MDA-MB-231 breast; over 10 µM in the assay on MDA-MB-435; 5.02 µM in the assay on NCI-H23 lung. Further, the TGI in the assay on OVCAR-4 ovarian was over 10 µM; with SK-MEL-5 melanoma, 2.39 µM; with U251 CNS, over 10 µM; in the assay with UACC-257 melanoma it was over 10 µM; in the assay on UACC-62 melanoma, over 10 µM.

Values taken from PubChem BioAssay (NCI).
